Assay results reported in ChEMBL document CHEMBL1127758 (Bioorg Med Chem Lett, 1994).

Experiments:
[1] = target: Proto-oncogene tyrosine-protein kinase Src (Homo sapiens, UniProt P12931); assay: Inhibition of Src tyrosine kinase
[2] = Inhibitory activity against phosphorylase kinase was determined
[3] = target: cAMP-dependent protein kinase (PKA) (Homo sapiens, UniProt P22694+P17612+P22612)
Description: Inhibitory activity against cAMP-dependent protein kinase A was determined

[4] = Inhibition of Ribosomal protein S6 kinase
[5] = target: Epidermal growth factor receptor (Homo sapiens, UniProt P00533)
Epidermal growth factor receptor, sequence (P00533 whole entry): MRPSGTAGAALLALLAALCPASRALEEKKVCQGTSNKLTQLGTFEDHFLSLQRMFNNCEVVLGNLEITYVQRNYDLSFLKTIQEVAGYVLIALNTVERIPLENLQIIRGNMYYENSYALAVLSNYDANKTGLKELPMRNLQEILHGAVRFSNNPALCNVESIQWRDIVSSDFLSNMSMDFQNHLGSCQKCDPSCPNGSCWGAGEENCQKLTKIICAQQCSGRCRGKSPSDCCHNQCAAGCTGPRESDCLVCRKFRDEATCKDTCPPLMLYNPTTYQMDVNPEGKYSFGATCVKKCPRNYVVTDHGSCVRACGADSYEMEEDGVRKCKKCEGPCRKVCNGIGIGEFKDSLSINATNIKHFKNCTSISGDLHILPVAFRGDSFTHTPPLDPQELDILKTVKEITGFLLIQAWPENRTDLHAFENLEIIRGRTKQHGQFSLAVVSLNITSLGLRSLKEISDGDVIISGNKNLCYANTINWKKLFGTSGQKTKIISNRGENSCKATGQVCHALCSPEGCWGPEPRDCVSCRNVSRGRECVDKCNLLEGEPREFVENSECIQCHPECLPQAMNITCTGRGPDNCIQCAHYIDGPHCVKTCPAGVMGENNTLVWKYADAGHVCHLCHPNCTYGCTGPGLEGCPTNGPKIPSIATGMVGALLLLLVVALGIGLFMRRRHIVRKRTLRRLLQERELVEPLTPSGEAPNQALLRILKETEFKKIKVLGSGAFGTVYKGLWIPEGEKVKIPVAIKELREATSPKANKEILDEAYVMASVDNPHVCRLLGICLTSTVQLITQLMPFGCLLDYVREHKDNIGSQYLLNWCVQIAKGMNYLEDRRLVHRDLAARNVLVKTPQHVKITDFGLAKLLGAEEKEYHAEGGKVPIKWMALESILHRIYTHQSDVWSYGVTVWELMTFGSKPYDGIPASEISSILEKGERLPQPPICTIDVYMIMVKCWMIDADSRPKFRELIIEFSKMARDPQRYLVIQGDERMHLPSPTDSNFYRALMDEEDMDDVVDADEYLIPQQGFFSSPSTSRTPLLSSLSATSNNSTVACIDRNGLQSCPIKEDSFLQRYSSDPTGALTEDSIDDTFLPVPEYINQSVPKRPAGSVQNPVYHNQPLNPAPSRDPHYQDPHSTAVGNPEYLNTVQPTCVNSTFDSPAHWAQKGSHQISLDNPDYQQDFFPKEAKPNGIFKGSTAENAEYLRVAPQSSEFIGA
Description: Inhibitory activity against protein tyrosine kinase of Epidermal growth factor receptor was determined

Proto-oncogene tyrosine-protein kinase Src, sequence (P12931 2-536 limits assumed): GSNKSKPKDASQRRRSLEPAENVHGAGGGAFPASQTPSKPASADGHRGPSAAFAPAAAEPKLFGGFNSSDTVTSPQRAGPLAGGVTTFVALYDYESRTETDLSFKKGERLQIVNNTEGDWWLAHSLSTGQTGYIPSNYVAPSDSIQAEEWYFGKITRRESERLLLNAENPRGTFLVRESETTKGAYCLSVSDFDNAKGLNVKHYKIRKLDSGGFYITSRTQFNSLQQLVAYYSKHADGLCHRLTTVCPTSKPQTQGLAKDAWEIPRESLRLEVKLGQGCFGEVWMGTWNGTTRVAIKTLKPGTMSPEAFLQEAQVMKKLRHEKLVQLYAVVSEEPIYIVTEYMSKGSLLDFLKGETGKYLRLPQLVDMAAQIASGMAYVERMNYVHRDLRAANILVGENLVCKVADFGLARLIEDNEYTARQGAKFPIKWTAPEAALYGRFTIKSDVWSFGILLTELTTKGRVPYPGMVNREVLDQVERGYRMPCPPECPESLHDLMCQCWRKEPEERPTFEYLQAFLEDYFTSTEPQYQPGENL

IC50 [1]	IC50 [2]	IC50 [3]	IC50 [4]	IC50 [5]	Structure (SMILES)
240 nM	70 nM	1600 nM			CCN(C)[C@H]1C[C@@H]2O[C@](C)([C@H]1OC)n1c3ccccc3c3c4c(c5c6ccccc6n2c5c31)C(=O)NC4
	40 nM	480 nM			COC(=O)N(C)[C@H]1C[C@@H]2O[C@](C)([C@H]1OC)n1c3ccccc3c3c4c(c5c6ccccc6n2c5c31)C(=O)NC4
	10 nM	1500 nM			CO[C@H]1[C@@H](N(C)C(C)=O)C[C@@H]2O[C@@]1(C)n1c3ccccc3c3c4c(c5c6ccccc6n2c5c31)C(=O)NC4
	170 nM	3300 nM			CN[C@H]1C[C@@H]2O[C@](C)([C@H]1OC)n1c3ccccc3c3c4c(c5c6ccccc6n2c5c31)[C@@H](O)NC4=O
	60 nM	2500 nM	100 nM		CO[C@H]1[C@@H](N(C)C(=O)c2cccc([N+](=O)[O-])c2)C[C@@H]2O[C@@]1(C)n1c3ccccc3c3c4c(c5c6ccccc6n2c5c31)C(=O)NC4
	19 nM	1000 nM			CO[C@H]1[C@@H](N(C)S(C)(=O)=O)C[C@@H]2O[C@@]1(C)n1c3ccccc3c3c4c(c5c6ccccc6n2c5c31)C(=O)NC4
	100 nM	480 nM			CO[C@H]1[C@@H](N(C)Cc2ccccc2)C[C@@H]2O[C@@]1(C)n1c3ccccc3c3c4c(c5c6ccccc6n2c5c31)C(=O)NC4
	24 nM	1400 nM			CO[C@H]1[C@@H](N(C)CCC#N)C[C@@H]2O[C@@]1(C)n1c3ccccc3c3c4c(c5c6ccccc6n2c5c31)C(=O)NC4
	~100000 nM	> 100000 nM	> 100000 nM		COC(=O)CN1Cc2c(c3c4ccccc4n4c3c3c2c2ccccc2n3[C@]2(C)O[C@H]4C[C@H](N(C)C(=O)c3ccccc3)[C@@H]2OC)C1=O
	78 nM	1500 nM			CO[C@H]1[C@@H](N(C)C(=O)c2ccccc2Cl)C[C@@H]2O[C@@]1(C)n1c3ccccc3c3c4c(c5c6ccccc6n2c5c31)C(=O)NC4
	320 nM	2600 nM			CO[C@H]1[C@@H](N(C)C(=O)c2ccc(Cl)cc2)C[C@@H]2O[C@@]1(C)n1c3ccccc3c3c4c(c5c6ccccc6n2c5c31)C(=O)NC4
	130 nM	1500 nM			COc1ccc(C(=O)N(C)[C@H]2C[C@@H]3O[C@](C)([C@H]2OC)n2c4ccccc4c4c5c(c6c7ccccc7n3c6c42)C(=O)NC5)cc1
	370 nM	> 100000 nM	200 nM		CO[C@H]1[C@@H](N(C)C(=O)c2cc([N+](=O)[O-])cc([N+](=O)[O-])c2)C[C@@H]2O[C@@]1(C)n1c3ccccc3c3c4c(c5c6ccccc6n2c5c31)C(=O)NC4
	15 nM	140 nM			CO[C@H]1[C@@H](N(C)CC(=O)O)C[C@@H]2O[C@@]1(C)n1c3ccccc3c3c4c(c5c6ccccc6n2c5c31)C(=O)NC4
	12 nM	380 nM			CO[C@H]1[C@@H](N(C)C(=O)c2cccnc2)C[C@@H]2O[C@@]1(C)n1c3ccccc3c3c4c(c5c6ccccc6n2c5c31)C(=O)NC4
	270 nM	750 nM			CO[C@H]1[C@@H](N(C)C(=O)c2ccccc2)C[C@@H]2O[C@@]1(C)n1c3ccccc3c3c4c(c5c6ccccc6n2c5c31)C(=O)NC4=O
	50 nM	360 nM			CCCCC(O)CN(C)[C@H]1C[C@@H]2O[C@](C)([C@H]1OC)n1c3ccccc3c3c4c(c5c6ccccc6n2c5c31)C(=O)NC4 (some centres not stated)
160 nM	120 nM	2250 nM	200 nM		CO[C@H]1[C@@H](N(C)C(=O)CNC(=O)OC(C)(C)C)C[C@@H]2O[C@@]1(C)n1c3ccccc3c3c4c(c5c6ccccc6n2c5c31)C(=O)NC4

IC50 [1]	IC50 [2]	IC50 [3]	IC50 [4]	IC50 [5]	Structure (SMILES)
	10 nM	17000 nM	100 nM		CO[C@H]1[C@@H](N(C)C(=O)C(F)(F)F)C[C@@H]2O[C@@]1(C)n1c3ccccc3c3c4c(c5c6ccccc6n2c5c31)C(=O)NC4
	53 nM	3670 nM			COC(=O)c1ccc(C(=O)N(C)[C@H]2C[C@@H]3O[C@](C)([C@H]2OC)n2c4ccccc4c4c5c(c6c7ccccc7n3c6c42)C(=O)NC5)cc1
200 nM	62 nM	700 nM			CO[C@H]1[C@@H](N(C)C(=O)CCC(=O)O)C[C@@H]2O[C@@]1(C)n1c3ccccc3c3c4c(c5c6ccccc6n2c5c31)C(=O)NC4
	10 nM	1600 nM	900 nM	12500 nM	CNC(=S)N(C)[C@H]1C[C@@H]2O[C@](C)([C@H]1OC)n1c3ccccc3c3c4c(c5c6ccccc6n2c5c31)C(=O)NC4
	20 nM	750 nM		8180 nM	CO[C@H]1[C@@H](N(C)C(=O)c2cnccn2)C[C@@H]2O[C@@]1(C)n1c3ccccc3c3c4c(c5c6ccccc6n2c5c31)C(=O)NC4
	22 nM	2250 nM			CN[C@H]1C[C@@H]2O[C@](C)([C@H]1OC)n1c3ccccc3c3c4c(c5c6ccccc6n2c5c31)[C@H](O)NC4=O
	48 nM				CO[C@H]1[C@@H](N(C)C(=O)c2ccccc2)C[C@@H]2O[C@@]1(C)n1c3ccccc3c3c4c(c5c6ccccc6n2c5c31)C(=O)NC4
	420 nM	28000 nM	1000 nM		CO[C@H]1[C@@H](N(C)C(=O)OC(C)(C)C)C[C@@H]2O[C@@]1(C)n1c3ccccc3c3c4c(c5c6ccccc6n2c5c31)C(=O)NC4
	51 nM	360 nM			CO[C@H]1[C@@H](N(C)C(=O)CN)C[C@@H]2O[C@@]1(C)n1c3ccccc3c3c4c(c5c6ccccc6n2c5c31)C(=O)NC4
	1900 nM	6800 nM			CO[C@H]1[C@@H](N(C)C(=O)c2cccc(Cl)c2)C[C@@H]2O[C@@]1(C)n1c3ccccc3c3c4c(c5c6ccccc6n2c5c31)C(=O)NC4
	35 nM				CO[C@H]1[C@@H](N(C)C(=O)c2ccccc2)C[C@@H]2O[C@@]1(C)n1c3ccccc3c3c4c(c5c6ccccc6n2c5c31)C(=O)N[C@@H]4O
	80 nM	1570 nM			CO[C@H]1[C@@H](N(C)C(=O)C2CCCCC2)C[C@@H]2O[C@@]1(C)n1c3ccccc3c3c4c(c5c6ccccc6n2c5c31)C(=O)NC4
	18 nM	270 nM			CC[N+](C)(C)[C@H]1C[C@@H]2O[C@](C)([C@H]1OC)n1c3ccccc3c3c4c(c5c6ccccc6n2c5c31)C(=O)NC4
	~100000 nM	> 100000 nM	> 100000 nM		CO[C@H]1[C@@H](N(C)C(=O)c2ccccc2)C[C@@H]2O[C@@]1(C)n1c3ccccc3c3c4c(c5c6ccccc6n2c5c31)C(=O)N(Cc1ccccc1)C4
	5250 nM	> 100000 nM			CO[C@H]1[C@@H](N(C)OC(=O)C(C)(C)C)C[C@@H]2O[C@@]1(C)n1c3ccccc3c3c4c(c5c6ccccc6n2c5c31)C(=O)NC4=O
	15 nM	55 nM			CO[C@H]1[C@@H](N(C)c2ccccc2)C[C@@H]2O[C@@]1(C)n1c3ccccc3c3c4c(c5c6ccccc6n2c5c31)C(=O)NC4
	30 nM	10000 nM	100 nM		CO[C@H]1[C@@H](N(C)C(=O)c2ccc(C(=O)O)cc2)C[C@@H]2O[C@@]1(C)n1c3ccccc3c3c4c(c5c6ccccc6n2c5c31)C(=O)NC4

Structure (SMILES)	IC50 [1]	IC50 [2]	IC50 [3]	IC50 [4]	IC50 [5]
CO[C@H]1[C@@H]([N+](C)(C)C)C[C@@H]2O[C@@]1(C)n1c3ccccc3c3c4c(c5c6ccccc6n2c5c31)C(=O)NC4		21 nM	68 nM	50 nM	
CN[C@H]1C[C@@H]2O[C@](C)([C@H]1OC)n1c3ccccc3c3c4c(c5c6ccccc6n2c5c31)C(=O)NC4=O	800 nM	5 nM	26 nM		
CN[C@H]1C[C@@H]2O[C@](C)([C@H]1OC)n1c3ccccc3c3c4c(c5c6ccccc6n2c5c31)C(=O)N[C@@H]4O		4 nM			
CN[C@H]1C[C@@H]2O[C@](C)([C@H]1OC)n1c3ccccc3c3c4c(c5c6ccccc6n2c5c31)C(=O)N[C@H]4O		6 nM			
COC(=O)CN(C)[C@H]1C[C@@H]2O[C@](C)([C@H]1OC)n1c3ccccc3c3c4c(c5c6ccccc6n2c5c31)C(=O)NC4		440 nM	3200 nM		
